The term MBC denotes the smallest concentration meeting the test's criterion for killing. In general, MIC refers to the lowest concentration found to suppress growth. As usually defined, the MIC50 is the lowest concentration that inhibits either 50% of growth or 50% of the strains tested, depending on the study.

Values after ≈ are worked out from the molar mass of the structure shown. Where two headings read alike, the source gives them in different places. Bounds are passed on as bounds.

What all share (format): cell-based
The test system of experiment [1] is S. aureus. Kind of experiment: Checkerboard assay of interactions between LC-PUFAs and topical antimicrobial agents. The following applies: n = 2, mean ± one standard deviation. The procedure:
Checkerboard assays were performed according to the standard protocol published by the American Society for Microbiology to investigate the existence of synergistic antimicrobial interactions between the three LC-PUFAs and two anti-acne agents (BPO and SA) against P. acnes. Further checkerboards were performed against S. aureus for BPO, SA and four antibiotics used to treat topical staphylococcal infections (FUS, MUP, NEO and POL) with these agents being assessed separately against each of the three LC-PUFAs. Doubling dilutions of each compound were prepared in TSA or SBB and dispensed to 96-well plates in the standard checkerboard pattern. […] Control wells were dispensed with medium supplemented with the greatest concentration of solvent used in any well, while negative control wells contained just medium. Inoculums were prepared to 1×10^7 CFU/mL as above. Each well (except for negative controls) was inoculated with 5 μL of bacterial suspension. Plates were incubated as for MIC determinations above and then the presence of bacterial growth was determined for each well according to the clarity of the medium and/or the presence of suspended colonies. The FIC for each well was determined for each interaction and the lowest FICs from duplicate checkerboard assays were used to calculate a mean value that permitted interpretation of the nature of interaction between each combination of compounds Using the pre-determined MIC values, checkerboard assays were performed to detect the interactions between the LC-PUFAs and the clinical antimicrobial drugs against the growth of S. aureus. The lowest fractional inhibitory concentration (FIC) on duplicate checkerboards was used to calculate a mean FIC for each interaction, and a mean FIC ≦0.5 was defined as synergy while a mean FIC ≧4 was defined as antagonism. Against S. aureus, none of the combinations gave a mean FIC ≧4, indicating no antagonism of efficacy between the LC-PUFAs and the clinical antimicrobial agents (Table 4). […] (Table 4)

Experiment [2] deals with S. aureus ATCC43300. Kind of experiment: MIC and MBC determination by broth micro-dilution against S. aureus. On the technique in general: In broth dilution the organism is exposed to a series of concentrations in liquid medium.
Experiment [3] has as its system P. acnes NCTC737. The experiment is described as follows: MIC and MBC determination by broth micro-dilution against P. acnes.
In experiment [4] the test system is ten diverse isolates of S. aureus. The experiment is described as follows: MIC50 and MBC50 against ten diverse isolates of S. aureus. Conditions: Staphylococcus aureus; for MIC50: concentration required to inhibit 50% of ten S. aureus isolates; for MBC: concentration required to kill 50% of ten S. aureus isolates.
Setting [5] is: Staphylococcus aureus, S. aureus ATCC43300, Mueller-Hinton broth, 18-20 h, LC-PUFAs (Table 1), read-out: MIC.
The mark [6] stands for this setting: Staphylococcus aureus, S. aureus ATCC43300, kills ≧99.9% of initial inoculum, LC-PUFAs (Table 1), read-out: MBC.
Setting [7] is: Cutibacterium acnes, P. acnes NCTC737, kills ≧99.9% of initial inoculum, LC-PUFAs (Table 1), read-out: MBC.
The mark [8] stands for this setting: Cutibacterium acnes, P. acnes NCTC737, supplemented brucella broth, 48 h, LC-PUFAs (Table 1), read-out: MIC.
The mark [9] stands for this setting: S. aureus, clinical antimicrobial agents (Table 3).
The mark [10] stands for this setting: P. acnes, clinical antimicrobial agents (Table 3).

For `O=C(OOC(=O)c1ccccc1)c1ccccc1` [BPO, benzoyl peroxide], the ΣFIC amounted to 2.00 ± 0.00 in experiment [1] (in combination with DHA), 1.00 ± 0.00 in experiment [1] (in combination with EPA) and 0.56 ± 0.09 in experiment [1] (in combination with GLA). The minimum bactericidal concentration (MBC) was 512 mg/L (≈ 2110 µM) in experiment [2] (Staphylococcus aureus, ATCC43300, S. aureus, clinical antimicrobial agents (Table 3), read-out: MBC) and more than 4100 µg/mL in experiment [3] (Cutibacterium acnes, NCTC737, P. acnes, clinical antimicrobial agents (Table 3), read-out: MBC). The MIC came out at 512 mg/L (≈ 2110 µM) in experiment [2] (Staphylococcus aureus, ATCC43300, S. aureus, clinical antimicrobial agents (Table 3), read-out: MIC) and 64 µg/mL (≈ 264 µM) in experiment [3] (Cutibacterium acnes, NCTC737, P. acnes, clinical antimicrobial agents (Table 3), read-out: MIC).
Turning to `CC/C=C\C/C=C\C/C=C\C/C=C\C/C=C\C/C=C\CCC(=O)O` [DHA, (4Z,7Z,10Z,13Z,16Z,19Z)-docosa-4,7,10,13,16,19-hexaenoic acid], the MIC50 in experiment [4] amounted to 128 µg/mL (≈ 390 µM). The MBC is 256 µg/mL (≈ 779 µM) in experiment [4], 128 mg/L (≈ 390 µM) in experiment [2] (setting [6]) and more than 4100 µg/mL in experiment [3] (setting [7]). The minimum inhibitory concentration (MIC) was 128 mg/L (≈ 390 µM) in experiment [2] (setting [5]) and 32 µg/mL (≈ 97.4 µM) in experiment [3] (setting [8]).
Take `CC/C=C\C/C=C\C/C=C\C/C=C\C/C=C\CCCC(=O)O` [EPA, all-cis-5,8,11,14,17-eicosapentaenoic acid]: the MIC50 in experiment [4] was determined as 256 µg/mL (≈ 846 µM). For the same compound, the results for the MBC in experiment [4], in experiment [2] (setting [6]) and in experiment [3] (setting [7]) were 256 µg/mL (≈ 846 µM), 256 mg/L (≈ 846 µM) and more than 4100 µg/mL, respectively. Moreover, the MIC turned out to be 128 mg/L (≈ 423 µM) in experiment [2] (setting [5]) and 128 µg/mL (≈ 423 µM) in experiment [3] (setting [8]).
As to `CC(=O)O[C@H]1C[C@@]2(C)[C@@H](C[C@@H](O)[C@H]3[C@@]4(C)CC[C@@H](O)[C@@H](C)[C@@H]4CC[C@@]32C)/C1=C(\CCC=C(C)C)C(=O)O` [FUS], the ΣFIC in experiment [1] (in combination with DHA) turned out to be 2.00 ± 0.00; in experiment [1] (in combination with EPA), 1.13 ± 0.18; in experiment [1] (in combination with GLA), 1.50 ± 0.71. Besides, in experiment [2] (setting [9]), the MBC came out at 8 mg/L (≈ 15.5 µM). Moreover, in experiment [2] (setting [9]), the MIC was 0.25 mg/L (≈ 0.484 µM).
`CCCCC/C=C\C/C=C\C/C=C\CCCCC(=O)O` [GLA, all-cis-6,9,12-octadecatrienoic acid]: the MIC50 in experiment [4] turned out to be 512 µg/mL (≈ 1840 µM). Besides, the MBC was 512 µg/mL (≈ 1840 µM) in experiment [4], 512 mg/L (≈ 1840 µM) in experiment [2] (setting [6]) and more than 4100 µg/mL in experiment [3] (setting [7]). Further, the MIC in experiment [2] (setting [5]) turned out to be 512 mg/L (≈ 1840 µM); in experiment [3] (setting [8]), 64 µg/mL (≈ 230 µM).
Turning to `C/C(=C\C(=O)OCCCCCCCCC(=O)O)C[C@@H]1OC[C@H](C[C@@H]2O[C@H]2[C@@H](C)[C@H](C)O)[C@@H](O)[C@H]1O` [MUP], the results for the ΣFIC in experiment [1] (in combination with DHA), in experiment [1] (in combination with EPA) and in experiment [1] (in combination with GLA) were 1.50 ± 0.00, 2.00 ± 0.00 and 2.25 ± 0.35, respectively. In experiment [2] (setting [9]), this compound came in with an MBC of 16 mg/L (≈ 32 µM). Moreover, in experiment [2] (setting [9]), the MIC came to 0.25 mg/L (≈ 0.499 µM).
For `NC[C@@H]1O[C@H](O[C@H]2[C@@H](O)[C@H](O[C@@H]3[C@@H](O)[C@H](N)C[C@H](N)[C@H]3O[C@H]3O[C@H](CN)[C@@H](O)[C@H](O)[C@H]3N)O[C@@H]2CO)[C@H](N)[C@@H](O)[C@@H]1O` [NEO, neomycin] the same measures were 0.56 ± 0.09, 0.38 ± 0.00, 0.19 ± 0.00, 128 mg/L (≈ 208 µM) and 32 mg/L (≈ 52.1 µM).
Take `O=C(O)c1ccccc1O` [SA]: the ΣFIC in experiment [1] (in combination with DHA) was 1.25 ± 0.35; in experiment [1] (in combination with EPA), 0.88 ± 0.18; in experiment [1] (in combination with GLA) it was 0.88 ± 0.18. Moreover, the MBC in experiment [2] (setting [9]) is 2048 mg/L (≈ 14800 µM); in experiment [3] (setting [10]), more than 4096 µg/mL. In addition, the figures for the MIC in experiment [2] (setting [9]) and in experiment [3] (setting [10]) were 1024 mg/L (≈ 7410 µM) and 64 µg/mL (≈ 463 µM), respectively.
With polymyxin B, the ΣFIC is 2.00 ± 0.00 in experiment [1] (in combination with DHA), 2.00 ± 0.00 in experiment [1] (in combination with EPA) and 1.06 ± 0.62 in experiment [1] (in combination with GLA). The compound further yielded an MBC in experiment [2] (setting [9]) of 128 mg/L. For the same compound, the MIC in experiment [2] (setting [9]) is on record as 16 mg/L.

The record behind these values is patent US20150080329A1, “PHARMACEUTICAL COMPOSITIONS COMPRISING DHA, EPA, AND/OR GLA AND AN ANTIBIOTIC AGENT AND METHODS OF USE THEREOF” (priority 2013, published 2015).
